Source: patent US8247211B2, “Glycopeptide antibiotics” (American Cyanamid Company, priority 2001, dated 2012)
Values after ≈ are worked out from the molar mass of the structure shown. Values belong to the compound of their own block, whether it stands above or below them.

Columns and labels:
Assay in all cases: In vitro antibacterial evaluation: minimum inhibitory concentration (MIC), broth dilution method
Type in all cases: cell-based
Streptococcus sp. = conditions: broth dilution, 18 hours at 35° C.
In short: (§1)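 Broth dilution per NCCLS M7-A2 in Muller-Hinton II […], inoculum 5×10^5 CFU/mL, antibiotic tested over 64-0.06 μg/mL. MIC is taken as the lowest concentration that inhibits growth. Panel includes recent clinical isolates resistant to methicillin, penicillin and/or vancomycin.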

Enterococcus sp. = conditions: broth dilution, 18 hours at 35° C.
In short: as §1

Staphylococcus sp. = conditions: broth dilution, 18 hours at 35° C.; for MIC Staphylococcus aureus-SMITH (GC 4543): strain SMITH GC 4543
In short: as §1

Escherichia coli = conditions: broth dilution, 18 hours at 35° C.
[1] = Streptococcus agalactiae (GC 4564)
[2] = Streptococcus pneumoniae (ATCC 6301)
[3] = Streptococcus pneumoniae (GC 1894)
[4] = Streptococcus pneumoniae (GC 4565)
[5] = Streptococcus pyogenes (GC 4563)
[6] = Enterococcus faecalis (ATCC 29212)
[7] = Enterococcus faecalis (GC 2242)
[8] = Enterococcus faecalis (GC 2691)
[9] = Enterococcus faecalis (GC 3059)
[10] = Enterococcus faecalis (GC 4552)
[11] = Enterococcus faecalis (GC 4553)
[12] = Enterococcus faecalis (GC 4554)
[13] = Enterococcus faecalis (GC 6189)

MIC Streptococcus agalactiae (GC 4564) (Streptococcus sp.; [1]): 16 µg/mL (≈ 13.6 µM) | MIC Streptococcus pneumoniae (ATCC 6301) (Streptococcus sp.; [2]): 8 µg/mL (≈ 6.81 µM) | MIC Streptococcus pneumoniae (GC 1894) (Streptococcus sp.; [3]): 8 µg/mL (≈ 6.81 µM) | MIC Streptococcus pneumoniae (GC 4565) (Streptococcus sp.; [4]): 16 µg/mL (≈ 13.6 µM) | MIC Streptococcus pyogenes (GC 4563) (Streptococcus sp.; [5]): 4 µg/mL (≈ 3.41 µM) | MIC Streptococcus agalactiae (GC 4564) (Streptococcus sp.): 16 µg/mL (≈ 13.6 µM) | MIC Streptococcus pneumoniae (ATCC 6301) (Streptococcus sp.): 8 µg/mL (≈ 6.81 µM) | MIC Streptococcus pneumoniae (GC 1894) (Streptococcus sp.): 8 µg/mL (≈ 6.81 µM) | MIC Streptococcus pneumoniae (GC 4565) (Streptococcus sp.): 16 µg/mL (≈ 13.6 µM) | MIC Streptococcus pyogenes (GC 4563) (Streptococcus sp.): 4 µg/mL (≈ 3.41 µM) | MIC Enterococcus avium (GC 4558) (Enterococcus sp.; Enterococcus avium (GC 4558)): 8 µg/mL (≈ 6.81 µM) | MIC Enterococcus faecalis (ATCC 29212) (Enterococcus sp.; [6]): 16 µg/mL (≈ 13.6 µM) | MIC Enterococcus faecalis (GC 2242) (Enterococcus sp.; [7]): 16 µg/mL (≈ 13.6 µM) | MIC Enterococcus faecalis (GC 2691) (Enterococcus sp.; [8]): 16 µg/mL (≈ 13.6 µM) | MIC Enterococcus faecalis (GC 3059) (Enterococcus sp.; [9]): 16 µg/mL (≈ 13.6 µM) | MIC Enterococcus faecalis (GC 4552) (Enterococcus sp.; [10]): 16 µg/mL (≈ 13.6 µM) | MIC Enterococcus faecalis (GC 4553) (Enterococcus sp.; [11]): 8 µg/mL (≈ 6.81 µM) | MIC Enterococcus faecalis (GC 4554) (Enterococcus sp.; [12]): 32 µg/mL (≈ 27.3 µM) | MIC Enterococcus faecalis (GC 6189) (Enterococcus sp.; [13]): 16 µg/mL (≈ 13.6 µM) | MIC Enterococcus faecium (GC 2243) (Enterococcus sp.; Enterococcus faecium (GC 2243)): 8 µg/mL (≈ 6.81 µM) | MIC Enterococcus faecium (GC 4556) (Enterococcus sp.; Enterococcus faecium (GC 4556)): 32 µg/mL (≈ 27.3 µM) | MIC Enterococcus faecium (GC 4557) (Enterococcus sp.; Enterococcus faecium (GC 4557)): 8 µg/mL (≈ 6.81 µM) | MIC Enterococcus avium (GC 4558) (Enterococcus sp.): 8 µg/mL (≈ 6.81 µM) | MIC Enterococcus faecalis (ATCC 29212) (Enterococcus sp.): 16 µg/mL (≈ 13.6 µM) | MIC Enterococcus faecalis (GC 2242) (Enterococcus sp.): 16 µg/mL (≈ 13.6 µM) | MIC Enterococcus faecalis (GC 2691) (Enterococcus sp.): 16 µg/mL (≈ 13.6 µM) | MIC Enterococcus faecalis (GC 3059) (Enterococcus sp.): 16 µg/mL (≈ 13.6 µM) | MIC Enterococcus faecalis (GC 4552) (Enterococcus sp.): 16 µg/mL (≈ 13.6 µM) | MIC Enterococcus faecalis (GC 4553) (Enterococcus sp.): 8 µg/mL (≈ 6.81 µM) | MIC Enterococcus faecalis (GC 4554) (Enterococcus sp.): 32 µg/mL (≈ 27.3 µM) | MIC Enterococcus faecalis (GC 6189) (Enterococcus sp.): 16 µg/mL (≈ 13.6 µM) | MIC Enterococcus faecium (GC 2243) (Enterococcus sp.): 8 µg/mL (≈ 6.81 µM) | MIC Enterococcus faecium (GC 4556) (Enterococcus sp.): 32 µg/mL (≈ 27.3 µM) | MIC Enterococcus faecium (GC 4557) (Enterococcus sp.): 8 µg/mL (≈ 6.81 µM) | MIC Coagulase Negative Staphylococcus (GC 4547) (Staphylococcus sp.): 8 µg/mL (≈ 6.81 µM) | MIC Coagulase Negative Staphylococcus (GC 4548) (Staphylococcus sp.): 8 µg/mL (≈ 6.81 µM) | MIC Coagulase Negative Staphylococcus (GC 4549) (Staphylococcus sp.): 4 µg/mL (≈ 3.41 µM) | MIC Coagulase Negative Staphylococcus (GC 4551) (Staphylococcus sp.): 8 µg/mL (≈ 6.81 µM) | MIC Coagulase Negative Staphylococcus (GC 6257) (Staphylococcus sp.): 4 µg/mL (≈ 3.41 µM) | MIC Staphylococcus aureus SMITH (GC 4543) (Staphylococcus sp.): 16 µg/mL (≈ 13.6 µM) | MIC Staphylococcus aureus-SMITH (GC 4543) (Staphylococcus sp.): 16 µg/mL (≈ 13.6 µM) | MIC Escherichia coli (GC 4560) (Escherichia coli): 16 µg/mL (≈ 13.6 µM)
SMILES: CC(c1ccccc1)C1NC(=O)CNC(=O)C(CO)NC(=O)C(C(O)C2CNC(=N)N2C2OC(CO)C(O)C(O)C2O)NC(=O)C(C(O)C2CNC(=N)N2)NC(=O)C(Cc2ccc3oc(C=C(c4ccccc4)c4ccccc4)nc3c2)NC1=O (stereo not drawn) [Example 39, Cyclo[3-[2-(2,2-diphenylethenyl)-1,3-benzoxazol-5-yl]alanyl-3-(2-iminoimidazolidin-4-yl)seryl-3-(3-hexopyranosyl-2-iminoimidazolidin-4-yl)serylserylglycyl-β-methylphenylalanyl]]
MIC Staphylococcus haemolyticus (GC 4546) (Staphylococcus sp.): 8 µg/mL (≈ 6.81 µM)

MIC Streptococcus agalactiae (GC 4564) (Streptococcus sp.; [1]): 8 µg/mL (≈ 7.09 µM) | MIC Streptococcus pneumoniae (ATCC 6301) (Streptococcus sp.; [2]): 8 µg/mL (≈ 7.09 µM) | MIC Streptococcus pneumoniae (GC 1894) (Streptococcus sp.; [3]): 16 µg/mL (≈ 14.2 µM) | MIC Streptococcus pneumoniae (GC 4565) (Streptococcus sp.; [4]): 16 µg/mL (≈ 14.2 µM) | MIC Streptococcus pyogenes (GC 4563) (Streptococcus sp.; [5]): 4 µg/mL (≈ 3.55 µM) | MIC Streptococcus agalactiae (GC 4564) (Streptococcus sp.): 8 µg/mL (≈ 7.09 µM) | MIC Streptococcus pneumoniae (ATCC 6301) (Streptococcus sp.): 8 µg/mL (≈ 7.09 µM) | MIC Streptococcus pneumoniae (GC 1894) (Streptococcus sp.): 16 µg/mL (≈ 14.2 µM) | MIC Streptococcus pneumoniae (GC 4565) (Streptococcus sp.): 16 µg/mL (≈ 14.2 µM) | MIC Streptococcus pyogenes (GC 4563) (Streptococcus sp.): 4 µg/mL (≈ 3.55 µM) | MIC Enterococcus avium (GC 4558) (Enterococcus sp.; Enterococcus avium (GC 4558)): 4 µg/mL (≈ 3.55 µM) | MIC Enterococcus faecalis (ATCC 29212) (Enterococcus sp.; [6]): 8 µg/mL (≈ 7.09 µM) | MIC Enterococcus faecalis (GC 2242) (Enterococcus sp.; [7]): 8 µg/mL (≈ 7.09 µM) | MIC Enterococcus faecalis (GC 2691) (Enterococcus sp.; [8]): 8 µg/mL (≈ 7.09 µM) | MIC Enterococcus faecalis (GC 3059) (Enterococcus sp.; [9]): 16 µg/mL (≈ 14.2 µM) | MIC Enterococcus faecalis (GC 4552) (Enterococcus sp.; [10]): 8 µg/mL (≈ 7.09 µM) | MIC Enterococcus faecalis (GC 4553) (Enterococcus sp.; [11]): 8 µg/mL (≈ 7.09 µM) | MIC Enterococcus faecalis (GC 4554) (Enterococcus sp.; [12]): 8 µg/mL (≈ 7.09 µM) | MIC Enterococcus faecalis (GC 6189) (Enterococcus sp.; [13]): 8 µg/mL (≈ 7.09 µM) | MIC Enterococcus faecium (GC 2243) (Enterococcus sp.; Enterococcus faecium (GC 2243)): 4 µg/mL (≈ 3.55 µM) | MIC Enterococcus faecium (GC 4556) (Enterococcus sp.; Enterococcus faecium (GC 4556)): 16 µg/mL (≈ 14.2 µM) | MIC Enterococcus faecium (GC 4557) (Enterococcus sp.; Enterococcus faecium (GC 4557)): 2 µg/mL (≈ 1.77 µM) | MIC Enterococcus avium (GC 4558) (Enterococcus sp.): 4 µg/mL (≈ 3.55 µM) | MIC Enterococcus faecalis (ATCC 29212) (Enterococcus sp.): 8 µg/mL (≈ 7.09 µM) | MIC Enterococcus faecalis (GC 2242) (Enterococcus sp.): 8 µg/mL (≈ 7.09 µM) | MIC Enterococcus faecalis (GC 2691) (Enterococcus sp.): 8 µg/mL (≈ 7.09 µM) | MIC Enterococcus faecalis (GC 3059) (Enterococcus sp.): 16 µg/mL (≈ 14.2 µM) | MIC Enterococcus faecalis (GC 4552) (Enterococcus sp.): 8 µg/mL (≈ 7.09 µM) | MIC Enterococcus faecalis (GC 4553) (Enterococcus sp.): 8 µg/mL (≈ 7.09 µM) | MIC Enterococcus faecalis (GC 4554) (Enterococcus sp.): 8 µg/mL (≈ 7.09 µM) | MIC Enterococcus faecalis (GC 6189) (Enterococcus sp.): 8 µg/mL (≈ 7.09 µM) | MIC Enterococcus faecium (GC 2243) (Enterococcus sp.): 4 µg/mL (≈ 3.55 µM) | MIC Enterococcus faecium (GC 4556) (Enterococcus sp.): 16 µg/mL (≈ 14.2 µM) | MIC Enterococcus faecium (GC 4557) (Enterococcus sp.): 2 µg/mL (≈ 1.77 µM) | MIC Coagulase Negative Staphylococcus (GC 4547) (Staphylococcus sp.): 2 µg/mL (≈ 1.77 µM) | MIC Coagulase Negative Staphylococcus (GC 4548) (Staphylococcus sp.): 1 µg/mL (≈ 0.886 µM) | MIC Coagulase Negative Staphylococcus (GC 4549) (Staphylococcus sp.): 1 µg/mL (≈ 0.886 µM) | MIC Coagulase Negative Staphylococcus (GC 4551) (Staphylococcus sp.): 4 µg/mL (≈ 3.55 µM) | MIC Coagulase Negative Staphylococcus (GC 6257) (Staphylococcus sp.): 1 µg/mL (≈ 0.886 µM) | MIC Staphylococcus aureus SMITH (GC 4543) (Staphylococcus sp.): 2 µg/mL (≈ 1.77 µM) | MIC Staphylococcus aureus-SMITH (GC 4543) (Staphylococcus sp.): 2 µg/mL (≈ 1.77 µM) | MIC Escherichia coli (ATCC 25922) (Escherichia coli): 32 µg/mL (≈ 28.4 µM) | MIC Escherichia coli (GC 4559) (Escherichia coli): 32 µg/mL (≈ 28.4 µM) | MIC Escherichia coli (GC 4560) (Escherichia coli): 1 µg/mL (≈ 0.886 µM)
SMILES: CC(c1ccccc1)C1NC(=O)CNC(=O)C(CO)NC(=O)C(CC2CNC(=N)N2C2OC(CO)C(O)C(O)C2O)NC(=O)C(CC2CNC(=N)N2)NC(=O)C(Cc2ccc3oc(-c4ccc5c(c4)Cc4ccccc4-5)nc3c2)NC1=O (stereo not drawn) [Example 42, Cyclo[3-[2-(9H-fluoren-2-yl)-1,3-benzoxazol-5-yl]alanyl-3-(2-iminoimidazolidin-4-yl)alanyl-3-(3-hexopyranosyl-2-iminoimidazolidin-4-yl)alanylserylglycyl-β-methylphenylalanyl]]
MIC Staphylococcus haemolyticus (GC 4546) (Staphylococcus sp.): 2 µg/mL (≈ 1.77 µM)
